Reference: patent publication US8410302B2, “Methoxyimino compounds and fungicide composition comprising same” (Kyung Nong Corporation, priority 2007, dated 2013)

Experiments:
[1] = tested on: Erysiphae graminis; test: Fungicidal activity against barley powdery mildew (BPM) disease, control value; assay type: in vivo; settings: barley powdery mildew
[2] = tested on: Puccinia recondita; test: Fungicidal activity against wheat leaf rust (WLR) disease, control value; assay type: in vivo; settings: wheat leaf rust
[3] = tested on: Pyricularia oryzae Carvara KA301; test: whole plant or invertebrate; assay type: in vivo; settings: for RCB control value (C.V.): rice blast
[4] = tested on: Phytophthora infestans; test: whole plant or invertebrate; assay type: in vivo; settings: for TLB control value (C.V.): tomato late blight
[5] = tested on: Rhizoctonia solani AG-1; test: Fungicidal activity against rice sheath blight (RSB) disease, control value; settings: for RSB control value (C.V.): 100 ppm, rice sheath blight
[6] = tested on: Botrytis cinerae; test: Fungicidal activity against cucumber gray mold rot (CGM) disease, control value; assay type: in vivo; settings: 100 ppm, cucumber gray mold rot
[7] = Pyricularia oryzae, read-out: RCB control value (C.V.)
[8] = Phytophthora infestans, in Solanum lycopersicum, read-out: TLB control value (C.V.)

SMILES	BPM control value (C.V.) ([1]; 2 ppm) [%]	BPM control value (C.V.) ([1]; 10 ppm) [%]	BPM control value (C.V.) ([1]; 50 ppm) [%]	BPM control value (C.V.) ([1]; 100 ppm) [%]	WLR control value (C.V.) ([2]; 2 ppm) [%]	WLR control value (C.V.) ([2]; 10 ppm) [%]	WLR control value (C.V.) ([2]; 50 ppm) [%]	WLR control value (C.V.) ([2]; 100 ppm) [%]	RCB control value (C.V.) ([3]; 2 ppm) [%]	RCB control value (C.V.) ([3]; 10 ppm) [%]	RCB control value (C.V.) ([3]; 50 ppm) [%]	RCB control value (C.V.) ([3]; 100 ppm) [%]	TLB control value (C.V.) ([4]; 10 ppm) [%]	TLB control value (C.V.) ([4]; 50 ppm) [%]	TLB control value (C.V.) ([4]; 100 ppm) [%]	RSB control value (C.V.) [5] [%]	CGM control value (C.V.) [6] [%]	other results
CO/N=C(/C(=O)OC)c1ccccc1CON=C(C)c1ccc(C=C(Cl)Br)cc1 [Example 37, methyl-(E)-2-[[[[[2-[4-(2-bromo-2-chlorovinyl)phenyl](1-methyl)methylidene]amino]oxy]methyl]phenyl]-2-methoxyiminoacetate]	35	90	93	95	100	100	100	100	75	90	100	100	10	90	100	90	50	–
CNC(=O)/C(=N/OC)c1ccccc1CON=C(C)c1cccc(C=C(Cl)Cl)c1 [Example 20, (E)-2-[[[[[2-[3-(2,2-dichlorovinyl)phenyl](1-methyl)methylidene]amino]oxy]methyl]phenyl]-2-methoxyimino-N-methylacetamide]	100	100	100	100	30	90	98	100	90	97	100	100	100	100	100	75	74	TLB control value (C.V.) ([4]; 2 ppm): 98%
CO/N=C(/C(=O)OC)c1ccccc1COc1cccc(C=C(Cl)Br)c1 [Example 15, methyl-(2E)-2-(2-((3-(2-bromo-2-chlorovinyl)phenoxy)methyl)phenyl)-2-methoxyiminoacetate]	–	–	–	–	–	–	–	–	–	–	–	–	–	–	–	–	–	pest or weed control at 2 ppm ([1]; Hordeum vulgare, 168 h, 2 ppm, read-out: BPM control value (C.V.)): 15%; pest or weed control at 10 ppm ([1]; Hordeum vulgare, 168 h, 10 ppm, read-out: BPM control value (C.V.)): 60%; pest or weed control at 50 ppm ([1]; Hordeum vulgare, 168 h, 50 ppm, read-out: BPM control value (C.V.)): 93%; pest or weed control at 100 ppm ([1]; Hordeum vulgare, 168 h, 100 ppm, read-out: BPM control value (C.V.)): 95%; pest or weed control at 2 ppm ([2]; 2 ppm, read-out: WLR control value (C.V.)): 100%; pest or weed control at 10 ppm ([2]; 10 ppm, read-out: WLR control value (C.V.)): 100%; pest or weed control at 50 ppm ([2]; 50 ppm, read-out: WLR control value (C.V.)): 100%; pest or weed control at 100 ppm ([2]; 100 ppm, read-out: WLR control value (C.V.)): 100%; pest or weed control at 2 ppm [3, 7]: 70%; pest or weed control at 10 ppm [3, 7]: 100%; pest or weed control at 50 ppm [3, 7]: 100%; pest or weed control at 100 ppm [3, 7]: 100%; pest or weed control at 10 ppm [4, 8]: 10%; pest or weed control at 50 ppm [4, 8]: 90%; pest or weed control at 100 ppm [4, 8]: 100%; pest or weed control at 100 ppm ([5]; Rhizoctonia solani, AG1, in Oryza sativa, read-out: RSB control value (C.V.)): 10%; pest or weed control at 100 ppm ([6]; Botrytis, read-out: CGM control value (C.V.)): 50%
